Measured values taken from patent US20150307520A1, “NOVEL HETEROARYL AND HETEROCYCLE COMPOUNDS, COMPOSITIONS AND METHODS THEREOF” (HUTCHISON MEDIPHARMA LIMITED, priority 2012, published 2015).

Legend:
Assay type in all cases: biochemical
p110δ/p85α = p110δ/p85α (Homo sapiens, UniProt O00329); assay: Transcreener KINASE Assay, kinase inhibition of p110δ/p85α; details: for PI3Kδ IH % @ 1 uM: 1 uM test compound; for IC50: read-out: PI3Kδ IC50
Outline: (§1)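 ADP formation read by far-red competitive FP immunoassay (60 min RT detection step) after an 80 min RT kinase reaction; substrate added as a 30 uM PIP2/10 uM ATP solution (not final).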

p110γ = p110γ (Homo sapiens, UniProt P48736); assay: Transcreener KINASE Assay, kinase inhibition of p110γ; details: for PI3Kγ IH % @ 1 uM: 1 uM test compound; for IC50: read-out: PI3Kγ IC50
Outline: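 Homogeneous endpoint format using recombinant enzymes; ADP measured by far-red FP immunoassay after 80 min reaction and 60 min detection, both at room temperature.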

p110β/p85α = p110β/p85α (Homo sapiens, UniProt P42338); assay: Transcreener KINASE Assay, kinase inhibition of p110β/p85α; details: for PI3Kβ IH % @ 1 uM: 1 uM test compound; for IC50: read-out: PI3Kβ IC50
Outline: as §1

p110γ, sequence (P48736 whole entry): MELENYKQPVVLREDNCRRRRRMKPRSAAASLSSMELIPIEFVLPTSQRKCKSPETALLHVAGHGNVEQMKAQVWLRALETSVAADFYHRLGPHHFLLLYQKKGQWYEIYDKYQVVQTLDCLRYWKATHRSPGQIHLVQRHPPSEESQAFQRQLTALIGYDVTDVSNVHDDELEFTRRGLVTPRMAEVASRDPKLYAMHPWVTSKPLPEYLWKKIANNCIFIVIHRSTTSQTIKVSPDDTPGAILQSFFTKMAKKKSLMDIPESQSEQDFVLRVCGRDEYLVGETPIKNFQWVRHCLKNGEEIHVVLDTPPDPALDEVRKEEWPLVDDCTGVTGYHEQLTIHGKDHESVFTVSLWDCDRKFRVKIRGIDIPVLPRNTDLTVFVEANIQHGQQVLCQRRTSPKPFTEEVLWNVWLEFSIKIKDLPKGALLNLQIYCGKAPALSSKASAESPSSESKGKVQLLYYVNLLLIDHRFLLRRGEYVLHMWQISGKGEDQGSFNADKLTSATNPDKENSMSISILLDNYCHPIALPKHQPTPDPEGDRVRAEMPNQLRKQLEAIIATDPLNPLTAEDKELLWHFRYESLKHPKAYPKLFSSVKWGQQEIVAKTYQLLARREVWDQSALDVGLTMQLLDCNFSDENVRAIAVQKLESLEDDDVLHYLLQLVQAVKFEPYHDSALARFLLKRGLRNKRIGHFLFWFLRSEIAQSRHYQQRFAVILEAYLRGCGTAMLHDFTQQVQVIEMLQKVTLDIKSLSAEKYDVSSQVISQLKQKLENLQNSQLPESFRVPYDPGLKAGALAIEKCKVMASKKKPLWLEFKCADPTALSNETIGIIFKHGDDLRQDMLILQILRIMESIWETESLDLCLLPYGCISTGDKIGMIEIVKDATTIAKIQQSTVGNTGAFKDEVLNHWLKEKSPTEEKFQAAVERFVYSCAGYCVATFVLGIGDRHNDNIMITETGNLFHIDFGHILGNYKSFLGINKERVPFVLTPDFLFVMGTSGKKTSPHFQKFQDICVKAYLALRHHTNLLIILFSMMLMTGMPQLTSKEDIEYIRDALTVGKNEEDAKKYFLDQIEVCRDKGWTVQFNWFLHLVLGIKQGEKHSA
p110β/p85α, sequence (P42338 whole entry): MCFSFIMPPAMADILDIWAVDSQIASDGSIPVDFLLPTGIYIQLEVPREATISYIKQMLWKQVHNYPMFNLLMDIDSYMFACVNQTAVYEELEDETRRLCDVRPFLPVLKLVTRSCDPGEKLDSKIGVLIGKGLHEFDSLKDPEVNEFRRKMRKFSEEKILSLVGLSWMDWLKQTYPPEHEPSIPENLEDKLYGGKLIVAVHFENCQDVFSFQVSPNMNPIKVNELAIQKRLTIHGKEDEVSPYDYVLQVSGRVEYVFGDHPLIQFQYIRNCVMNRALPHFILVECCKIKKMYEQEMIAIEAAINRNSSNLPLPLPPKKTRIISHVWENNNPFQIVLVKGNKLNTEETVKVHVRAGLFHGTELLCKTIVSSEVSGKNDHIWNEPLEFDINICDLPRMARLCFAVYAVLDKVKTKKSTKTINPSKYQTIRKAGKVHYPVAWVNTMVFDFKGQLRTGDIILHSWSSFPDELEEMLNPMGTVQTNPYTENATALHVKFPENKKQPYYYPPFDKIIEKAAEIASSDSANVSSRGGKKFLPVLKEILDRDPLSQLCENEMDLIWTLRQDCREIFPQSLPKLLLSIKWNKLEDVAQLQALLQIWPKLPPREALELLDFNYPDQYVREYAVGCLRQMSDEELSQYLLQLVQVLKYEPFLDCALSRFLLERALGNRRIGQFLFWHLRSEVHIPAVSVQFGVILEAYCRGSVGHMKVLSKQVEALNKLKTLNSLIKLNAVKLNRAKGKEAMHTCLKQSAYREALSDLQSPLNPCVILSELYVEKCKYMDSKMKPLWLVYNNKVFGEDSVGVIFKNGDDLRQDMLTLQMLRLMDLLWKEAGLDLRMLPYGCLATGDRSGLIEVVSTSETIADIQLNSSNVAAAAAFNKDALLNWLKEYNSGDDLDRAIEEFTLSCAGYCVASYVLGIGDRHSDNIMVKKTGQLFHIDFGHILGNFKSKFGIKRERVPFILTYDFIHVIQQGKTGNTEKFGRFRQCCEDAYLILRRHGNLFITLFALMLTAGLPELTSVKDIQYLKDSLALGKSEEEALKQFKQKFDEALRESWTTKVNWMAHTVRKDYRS
p110β/p85α, sequence (P27986 2-724 partner): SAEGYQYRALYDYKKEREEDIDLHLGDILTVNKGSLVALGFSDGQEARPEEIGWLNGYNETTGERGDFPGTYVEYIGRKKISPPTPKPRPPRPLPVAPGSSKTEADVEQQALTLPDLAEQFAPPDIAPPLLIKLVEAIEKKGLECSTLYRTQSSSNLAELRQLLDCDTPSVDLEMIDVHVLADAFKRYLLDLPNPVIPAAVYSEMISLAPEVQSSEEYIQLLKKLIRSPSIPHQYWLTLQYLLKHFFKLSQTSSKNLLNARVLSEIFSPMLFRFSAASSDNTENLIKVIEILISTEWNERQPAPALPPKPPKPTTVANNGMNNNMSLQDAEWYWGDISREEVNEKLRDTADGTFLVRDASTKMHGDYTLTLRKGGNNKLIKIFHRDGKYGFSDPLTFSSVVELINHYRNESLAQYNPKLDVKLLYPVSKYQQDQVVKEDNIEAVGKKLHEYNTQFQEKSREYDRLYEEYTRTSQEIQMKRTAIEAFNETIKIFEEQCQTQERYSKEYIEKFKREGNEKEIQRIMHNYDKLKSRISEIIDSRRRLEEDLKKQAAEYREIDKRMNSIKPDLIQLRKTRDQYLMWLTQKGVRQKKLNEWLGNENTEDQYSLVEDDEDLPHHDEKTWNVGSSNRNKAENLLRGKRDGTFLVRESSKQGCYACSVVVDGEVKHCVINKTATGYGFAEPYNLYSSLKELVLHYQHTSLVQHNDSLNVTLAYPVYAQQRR
p110δ/p85α, sequence (O00329 whole entry): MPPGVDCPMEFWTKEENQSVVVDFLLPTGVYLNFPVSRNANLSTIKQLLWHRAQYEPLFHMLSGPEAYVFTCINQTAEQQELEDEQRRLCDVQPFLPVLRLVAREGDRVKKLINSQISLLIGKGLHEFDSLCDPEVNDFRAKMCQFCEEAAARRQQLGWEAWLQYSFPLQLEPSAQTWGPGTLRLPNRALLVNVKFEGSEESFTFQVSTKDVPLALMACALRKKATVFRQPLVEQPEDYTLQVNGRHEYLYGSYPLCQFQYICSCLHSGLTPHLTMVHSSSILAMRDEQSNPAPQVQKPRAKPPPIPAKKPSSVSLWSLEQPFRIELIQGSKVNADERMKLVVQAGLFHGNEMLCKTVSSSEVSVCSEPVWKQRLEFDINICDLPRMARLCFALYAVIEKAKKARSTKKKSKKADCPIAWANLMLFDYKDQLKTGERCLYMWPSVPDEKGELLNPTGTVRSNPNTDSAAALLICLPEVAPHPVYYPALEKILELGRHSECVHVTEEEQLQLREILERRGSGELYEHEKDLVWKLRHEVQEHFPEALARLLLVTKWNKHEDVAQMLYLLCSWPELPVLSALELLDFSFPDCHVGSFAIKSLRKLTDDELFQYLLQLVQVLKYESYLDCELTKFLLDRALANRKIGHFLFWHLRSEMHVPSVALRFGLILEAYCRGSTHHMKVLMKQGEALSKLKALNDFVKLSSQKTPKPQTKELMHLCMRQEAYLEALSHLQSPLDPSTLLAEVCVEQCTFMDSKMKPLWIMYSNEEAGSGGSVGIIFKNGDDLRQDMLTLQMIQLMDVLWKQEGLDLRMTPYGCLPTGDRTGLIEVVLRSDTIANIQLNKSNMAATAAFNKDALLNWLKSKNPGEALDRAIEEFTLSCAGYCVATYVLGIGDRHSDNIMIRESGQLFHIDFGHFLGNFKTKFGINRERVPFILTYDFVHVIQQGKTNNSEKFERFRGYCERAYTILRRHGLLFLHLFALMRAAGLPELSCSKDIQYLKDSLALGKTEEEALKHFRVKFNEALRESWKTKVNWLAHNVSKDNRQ
p110δ/p85α, sequence (P27986 whole entry partner): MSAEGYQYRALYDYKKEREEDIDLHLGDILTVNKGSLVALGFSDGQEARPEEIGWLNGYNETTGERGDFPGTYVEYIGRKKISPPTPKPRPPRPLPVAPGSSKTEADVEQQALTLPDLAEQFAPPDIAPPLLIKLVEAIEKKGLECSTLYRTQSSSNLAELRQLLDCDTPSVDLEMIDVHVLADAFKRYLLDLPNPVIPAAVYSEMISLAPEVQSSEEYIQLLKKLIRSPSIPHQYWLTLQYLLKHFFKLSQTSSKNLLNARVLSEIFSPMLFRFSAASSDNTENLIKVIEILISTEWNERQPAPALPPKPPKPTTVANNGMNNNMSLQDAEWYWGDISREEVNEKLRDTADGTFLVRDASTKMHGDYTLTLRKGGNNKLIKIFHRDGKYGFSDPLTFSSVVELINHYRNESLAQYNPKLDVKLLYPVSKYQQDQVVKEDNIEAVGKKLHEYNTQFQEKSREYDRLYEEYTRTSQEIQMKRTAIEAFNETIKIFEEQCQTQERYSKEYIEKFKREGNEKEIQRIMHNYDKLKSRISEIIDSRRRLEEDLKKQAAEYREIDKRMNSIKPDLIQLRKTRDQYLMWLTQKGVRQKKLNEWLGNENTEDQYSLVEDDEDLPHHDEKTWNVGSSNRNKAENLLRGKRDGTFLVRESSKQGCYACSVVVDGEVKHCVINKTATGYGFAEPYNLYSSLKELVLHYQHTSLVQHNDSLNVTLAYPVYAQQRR

SMILES | PI3Kδ IH % @ 1 uM (p110δ/p85α) [%] | IC50 (p110δ/p85α) [nM] | PI3Kγ IH % @ 1 uM (p110γ) [%] | IC50 (p110γ) [nM] | PI3Kβ IH % @ 1 uM (p110β/p85α) [%] | IC50 (p110β/p85α) [nM]
N#Cc1c[nH]c2ncnc(N3C[C@@H](F)C[C@H]3c3nn4ccc(F)c4c(=O)n3-c3ccccn3)c12 [Compound 346] | >100 | 2 | 94.1 | 26 | 86.1 | 47
N#C[C@H]1C[C@@H](c2nn3ccc(Cl)c3c(=O)n2-c2cccc(F)c2)N(c2ncnc3[nH]cnc23)C1 [Compound 347, (3S,5S)-5-(5-chloro-3-(3-fluorophenyl)-4-oxo-3,4-dihydropyrrolo[2,1-f][1,2,4]triazin-2-yl)-1-(9H-purin-6-yl)pyrrolidine-3-carbonitrile] | 98.3 | 2 | 91.8 | 13 | 87.8 | 70
C[S@+]([O-])c1c[nH]c2ncnc(N3C[C@@H](C#N)C[C@H]3c3nn4ccc(Cl)c4c(=O)n3-c3cccc(F)c3)c12 [Compound 348, (3S,5S)-5-(5-chloro-3-(3-fluorophenyl)-4-oxo-3,4-dihydropyrrolo[2,1-f][1,2,4]triazin-2-yl)-1-(5-((S)-methylsulfinyl)-7H-pyrrolo[2,3-d]pyrimidin-4-yl)pyrrolidine-3-carbonitrile] | 96.9 | 39 | 75.6 | 312 | 51.2 | 
C[S@@+]([O-])c1c[nH]c2ncnc(N3C[C@@H](C#N)C[C@H]3c3nn4ccc(Cl)c4c(=O)n3-c3cccc(F)c3)c12 [Compound 349, (3S,5S)-5-(5-chloro-3-(3-fluorophenyl)-4-oxo-3,4-dihydropyrrolo[2,1-f][1,2,4]triazin-2-yl)-1-(5-((R)-methylsulfinyl)-7H-pyrrolo[2,3-d]pyrimidin-4-yl)pyrrolidine-3-carbonitrile] | 92.6 | 111 | 76.6 | 268 | 29.5 | 
N#Cc1c[nH]c2ncnc(N3C[C@@H](C#N)C[C@H]3c3nn4ccc(Cl)c4c(=O)n3-c3cccc(F)c3)c12 [Compound 350] | >100 | 1 | >100 | 4 | >100 | 35
N#Cc1cnc(N)nc1N1C[C@@H](C#N)C[C@H]1c1nn2ccc(Cl)c2c(=O)n1-c1ccccc1 [Compound 351] | >100 | 1 | 95.5 | 3 | 89.6 | 81
C[S+]([O-])c1n[nH]c2ncnc(N3CCC[C@H]3c3nn4ccc(Cl)c4c(=O)n3-c3ccccc3)c12 (stereo partly drawn) [Compound 352, 5-chloro-2-((2S)-1-(3-(methylsulfinyl)-1H-pyrazolo[3,4-d]pyrimidin-4-yl)pyrrolidin-2-yl)-3-phenylpyrrolo[2,1-f][1,2,4]triazin-4(3H)-one] | >100 | 34 | 97.2 | 11 | 40.7 | 
C[S+]([O-])c1n[nH]c2ncnc(N3CC[C@H]3c3nn4ccc(Cl)c4c(=O)n3-c3ccccc3)c12 (some centres unmarked) [Compound 353] | 33.8 |  | 79.2 | 223 | 14.6 | 
CC(O)c1cnc(N)nc1N1CC[C@H]1c1nn2ccc(Cl)c2c(=O)n1-c1ccccc1 (stereo partly drawn) [Compound 357, 2-((2S)-1-(2-amino-5-(1-hydroxyethyl)pyrimidin-4-yl)azetidin-2-yl)-5-chloro-3-phenylpyrrolo[2,1-f][1,2,4]triazin-4(3H)-one] | 37.9 |  | 66.2 |  | 5 | 
N#C[C@@H]1C[C@@H](c2nn3ccc(Cl)c3c(=O)n2-c2ccccc2)N(c2ncnc3[nH]cnc23)C1 [Compound 358, (3R,5S)-5-(5-chloro-4-oxo-3-phenyl-3,4-dihydropyrrolo[2,1-f][1,2,4]triazin-2-yl)-1-(9H-purin-6-yl)pyrrolidine-3-carbonitrile] | >100 | 17 | >100 | 66 | 62.0 | 269
N#C[C@H]1C[C@@H](c2nn3ccc(Cl)c3c(=O)n2-c2ccccc2)N(c2ncnc3[nH]cnc23)C1 [Compound 359] | >100 | 1 | >100 | 3 | 94.8 | 44
N#Cc1c[nH]c2ncnc(N3C[C@@H](C#N)C[C@H]3c3nn4ccc(Cl)c4c(=O)n3-c3ccccc3)c12 [Compound 360] | 99.2 | 1 | >100 | 5 | 95.3 | 12
N#C[C@H]1C[C@@H](c2nn3ccc(Cl)c3c(=O)n2-c2ccc(F)cc2)N(c2ncnc3[nH]cnc23)C1 [Compound 361] | 97.9 | 25 | >100 | 27 | 79.2 | 103
CCC(=O)c1cnc(N)nc1N1CC[C@H]1c1nn2ccc(Cl)c2c(=O)n1-c1ccccc1 [Compound 362] | 56.0 |  | 97.4 | 40 | 4.1 | 
O=c1c2c(Cl)ccn2cc(C2CCCN2c2ncnc3[nH]cnc23)n1-c1ccccc1 (centres unmarked) [Compound 363, 3-(1-(9H-purin-6-yl)pyrrolidin-2-yl)-8-chloro-2-phenylpyrrolo[1,2-a]pyrazin-1(2H)-one] | 97.5 | 6 | 98.3 | 27 | 68.3 | 
N#Cc1c[nH]c2ncnc(N3CCCC3c3cn4ccc(Cl)c4c(=O)n3-c3ccccc3)c12 (centres unmarked) [Compound 364] | 99.1 | 2 | >100 | 17 | 88.2 | 56
CS(=O)(=O)[C@H]1C[C@@H](c2nn3ccc(Cl)c3c(=O)n2-c2ccccc2)N(c2ncnc3[nH]cc(C#N)c23)C1 [Compound 365, 4-((2S,4S)-2-(5-chloro-4-oxo-3-phenyl-3,4-dihydropyrrolo[2,1-f][1,2,4]triazin-2-yl)-4-(methylsulfonyl)pyrrolidin-1-yl)-7H-pyrrolo[2,3-d]pyrimidine-5-carbonitrile] | 98.0 | 3 | 88.6 | 25 | 79.0 | 275
CS(=O)(=O)[C@H]1C[C@@H](c2nn3ccc(Cl)c3c(=O)n2-c2ccccc2)N(c2ncnc3[nH]cnc23)C1 [Compound 366] | 97.1 | 11 | 86.8 | 89 | 74.4 | 300
CC(=O)c1cnc(N)nc1N1CCC[C@H]1c1nn2ccc(Cl)c2c(=O)n1-c1ccccc1 [Compound 369, (S)-2-(1-(5-acetyl-2-aminopyrimidin-4-yl)pyrrolidin-2-yl)-5-chloro-3-phenylpyrrolo[2,1-f][1,2,4]triazin-4(3H)-one] | >100 | 2 | 90.4 | 3 | 68.8 | 242
N#Cc1c[nH]c2ncnc(N3CC[C@H]3c3nn4ccc(Cl)c4c(=O)n3CC3CC3)c12 [Compound 371, (S)-4-(2-(5-chloro-3-(cyclopropylmethyl)-4-oxo-3,4-dihydropyrrolo[2,1-f][1,2,4]triazin-2-yl)azetidin-1-yl)-7H-pyrrolo[2,3-d]pyrimidine-5-carbonitrile] | 89.8 | 70 | 74.4 | 317 | 17.5 | 
CS(=O)(=O)CCn1c([C@@H]2CCCN2c2ncnc3[nH]cnc23)nn2ccc(Cl)c2c1=O [Compound 372] | 84.8 | 100 | 87.7 | 297 | 42.6 | 
